Reference: ChEMBL document CHEMBL1201862, “PubChem BioAssay data set” (2004)
Calls of active or inactive are those of the source.

Experiments:
Aminopeptidase N = target: T1, Aminopeptidase N (Plasmodium falciparum FcB1/Columbia, UniProt O96935); experiment: malaria alanyl aminopeptidase activity blockers – biochemical, fluorogenic H-Leu-NHMec substrate, 1536-well (AID 1445); parameters: species or system Plasmodium falciparum 3D7, 3D7
T1 sequence (O96935 whole entry): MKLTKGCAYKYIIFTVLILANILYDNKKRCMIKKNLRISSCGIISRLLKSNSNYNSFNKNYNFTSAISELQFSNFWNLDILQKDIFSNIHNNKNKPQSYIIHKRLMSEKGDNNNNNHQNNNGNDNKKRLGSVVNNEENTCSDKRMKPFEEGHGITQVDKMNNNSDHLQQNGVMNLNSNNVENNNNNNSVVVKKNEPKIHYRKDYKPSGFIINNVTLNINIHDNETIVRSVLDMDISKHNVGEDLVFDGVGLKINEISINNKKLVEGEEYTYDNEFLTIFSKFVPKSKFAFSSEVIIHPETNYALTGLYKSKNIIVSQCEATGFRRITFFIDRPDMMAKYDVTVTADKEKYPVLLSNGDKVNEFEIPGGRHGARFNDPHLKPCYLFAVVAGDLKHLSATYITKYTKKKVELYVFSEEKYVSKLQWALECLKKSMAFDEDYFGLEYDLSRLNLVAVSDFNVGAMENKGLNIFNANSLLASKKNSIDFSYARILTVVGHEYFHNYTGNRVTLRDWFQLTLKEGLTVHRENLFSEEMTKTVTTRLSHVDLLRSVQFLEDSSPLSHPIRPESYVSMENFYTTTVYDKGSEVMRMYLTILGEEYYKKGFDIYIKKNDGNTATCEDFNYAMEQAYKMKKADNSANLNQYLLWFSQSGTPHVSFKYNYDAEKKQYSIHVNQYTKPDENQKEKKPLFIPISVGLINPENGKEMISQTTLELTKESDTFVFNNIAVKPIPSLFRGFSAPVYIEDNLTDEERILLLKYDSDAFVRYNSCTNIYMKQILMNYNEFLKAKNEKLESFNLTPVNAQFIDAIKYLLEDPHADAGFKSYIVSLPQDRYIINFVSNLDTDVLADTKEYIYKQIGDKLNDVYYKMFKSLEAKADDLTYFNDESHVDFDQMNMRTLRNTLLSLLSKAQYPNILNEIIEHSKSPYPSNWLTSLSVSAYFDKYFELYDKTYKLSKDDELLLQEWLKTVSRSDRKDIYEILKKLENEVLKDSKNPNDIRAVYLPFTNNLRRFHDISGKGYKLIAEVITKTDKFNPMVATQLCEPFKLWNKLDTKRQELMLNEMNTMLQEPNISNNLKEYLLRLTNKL

Beta-galactosidase = Beta-galactosidase (Escherichia coli, UniProt Q8VNN2); experiment: PubChem AID 485352; assay type: functional
[1] = target: T2, Type-1 angiotensin II receptor (Homo sapiens, UniProt P30556); experiment: antagonism of angiotensin II type 1 receptor – cell-based, uHTS hits, selectivity assay for APJ receptor antagonist project, dose response (AID 463214); assay type: functional;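 note: antagonist potency against angiotensin II stimulated AT1 response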
T2 sequence (P30556 whole entry): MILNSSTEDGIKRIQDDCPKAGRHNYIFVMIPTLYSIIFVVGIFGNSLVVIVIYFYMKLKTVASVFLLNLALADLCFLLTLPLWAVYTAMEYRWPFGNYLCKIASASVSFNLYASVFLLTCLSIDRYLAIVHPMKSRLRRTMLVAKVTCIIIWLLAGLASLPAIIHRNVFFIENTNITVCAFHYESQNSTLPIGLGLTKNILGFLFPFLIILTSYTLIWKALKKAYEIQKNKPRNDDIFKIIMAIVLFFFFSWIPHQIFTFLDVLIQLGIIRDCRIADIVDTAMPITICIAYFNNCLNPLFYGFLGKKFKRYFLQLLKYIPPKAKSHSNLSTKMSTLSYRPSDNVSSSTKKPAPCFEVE

Protein RecA = target: T3, Protein RecA (Mycobacterium tuberculosis, UniProt P9WHJ3); experiment: Fluorescence Cell-Free Homogeneous Dose Retest to Identify Inhibitors of RecA-Intein Splicing Activity. [Related pubchem assays (depositor defined):AID2097, AID2223, AID489010, AID492950]; assay type: functional
T3 sequence (P9WHJ3 whole entry): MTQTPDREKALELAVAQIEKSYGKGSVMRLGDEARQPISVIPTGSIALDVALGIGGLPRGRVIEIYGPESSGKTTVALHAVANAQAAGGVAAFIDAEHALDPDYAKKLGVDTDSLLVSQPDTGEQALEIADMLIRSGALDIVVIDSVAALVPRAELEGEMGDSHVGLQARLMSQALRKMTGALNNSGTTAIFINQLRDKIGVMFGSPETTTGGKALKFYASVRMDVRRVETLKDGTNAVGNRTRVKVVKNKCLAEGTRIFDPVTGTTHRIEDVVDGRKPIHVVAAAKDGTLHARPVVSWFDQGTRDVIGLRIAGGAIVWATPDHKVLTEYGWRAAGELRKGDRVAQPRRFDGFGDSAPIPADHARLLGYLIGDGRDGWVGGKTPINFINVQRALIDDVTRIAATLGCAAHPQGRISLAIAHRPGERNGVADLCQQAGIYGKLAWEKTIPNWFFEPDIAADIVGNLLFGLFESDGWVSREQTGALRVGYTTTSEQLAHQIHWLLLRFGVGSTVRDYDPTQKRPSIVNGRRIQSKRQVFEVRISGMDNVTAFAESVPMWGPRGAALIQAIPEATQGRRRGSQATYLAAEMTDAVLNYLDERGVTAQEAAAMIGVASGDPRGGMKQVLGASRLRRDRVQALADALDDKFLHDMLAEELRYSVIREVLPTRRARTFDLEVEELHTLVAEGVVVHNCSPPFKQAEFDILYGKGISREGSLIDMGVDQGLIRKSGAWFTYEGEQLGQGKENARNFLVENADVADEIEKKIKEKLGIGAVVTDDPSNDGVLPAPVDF

[2] = target: T4, Replicative DNA helicase DnaB (Mycobacterium tuberculosis, UniProt P9WMR3); experiment: DnaB intein splicing inhibitors, dose response, biochemical, cell-free fluorescence (AID 449749); assay type: functional
T4 sequence (P9WMR3 whole entry): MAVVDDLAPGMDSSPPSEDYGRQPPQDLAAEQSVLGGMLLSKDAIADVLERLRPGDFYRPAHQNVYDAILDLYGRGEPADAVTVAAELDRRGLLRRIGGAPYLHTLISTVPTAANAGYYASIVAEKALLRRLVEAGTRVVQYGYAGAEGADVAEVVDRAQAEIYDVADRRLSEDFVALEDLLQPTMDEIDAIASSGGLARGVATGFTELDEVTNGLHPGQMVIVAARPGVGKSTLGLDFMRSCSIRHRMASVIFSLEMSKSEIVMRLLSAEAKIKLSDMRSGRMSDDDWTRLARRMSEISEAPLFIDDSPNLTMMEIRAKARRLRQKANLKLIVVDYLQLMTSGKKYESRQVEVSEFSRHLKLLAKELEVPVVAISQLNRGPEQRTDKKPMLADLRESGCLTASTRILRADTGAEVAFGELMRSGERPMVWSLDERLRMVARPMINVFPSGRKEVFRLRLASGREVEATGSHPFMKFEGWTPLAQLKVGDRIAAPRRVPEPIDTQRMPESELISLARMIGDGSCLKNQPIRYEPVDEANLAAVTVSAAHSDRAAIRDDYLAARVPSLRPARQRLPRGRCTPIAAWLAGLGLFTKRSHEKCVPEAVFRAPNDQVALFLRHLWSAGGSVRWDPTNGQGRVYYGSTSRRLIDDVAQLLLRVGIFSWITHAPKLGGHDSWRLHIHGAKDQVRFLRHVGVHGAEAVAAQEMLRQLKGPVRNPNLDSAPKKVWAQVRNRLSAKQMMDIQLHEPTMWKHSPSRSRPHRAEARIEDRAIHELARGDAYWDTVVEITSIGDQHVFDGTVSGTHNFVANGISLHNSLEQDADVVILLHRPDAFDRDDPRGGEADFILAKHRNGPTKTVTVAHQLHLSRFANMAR

HEK293 = experiment: EBV LMP1 TES2 canonical NF-kB signalling blockers – cell-based, HEK293, luciferase, cherry-pick, dose response (AID 588343); assay type: functional; details: Homo sapiens
[3] = blockers of HIV-1 envelope-mediated cell-cell fusion – cherry-pick, dose response (AID 652057); assay type: functional, cell-based
[4] = blockers of HIV-1 ZM109 envelope-driven cell-cell fusion – HeLa effector, CEM target cells, luciferase, cherry-pick, dose response (AID 652058); assay type: functional, cell-based;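 note: luciferase signal from HIV-1 Env mediated cell-cell fusion of effector and target cells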
[5] = HIV-1 AD8 envelope cell-cell fusion blockers – cherry-pick, dose response (AID 652062); assay type: functional, cell-based;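 note: luciferase signal from cell-cell fusion driven by HIV-1 clade B AD8 Env; potency is for inhibitors of fusion seen as a drop in luminescence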
[6] = off-target signal loss in HeLa-CEM21 co-culture – HeLa F-luc CTL cells, cherry-picked, counter-screen for HIV-1 Env fusion inhibitor project, dose response (AID 652040); assay type: functional, cell-based;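 note: potency for signal decrease marking cytotoxic or nonspecific inhibition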
[7] = target: Induced myeloid leukemia cell differentiation protein Mcl-1 (Homo sapiens, UniProt Q07820); assay type: functional
Fatty acid synthase [8] = target: T5, Fatty acid synthase (Homo sapiens, UniProt P49327); experiment: inhibition of human FAS-TE enzyme activity – biochemical, kinetic fluorescence intensity, dose response (AID 624326); assay type: functional;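 note: rate of fluorescence rise from hydrolysis of a fluorogenic O-methyl fluorescein ester substrate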
Fatty acid synthase [9] = target: T5, Fatty acid synthase; experiment: inhibition of human FAS-TE enzyme activity – biochemical, endpoint fluorescence intensity, uHTS hits, dose response (AID 624327); assay type: functional;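 note: fluorescence from hydrolysis of an O-methyl fluorescein acyl ester substrate by the enzyme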

T5 sequence (P49327 whole entry): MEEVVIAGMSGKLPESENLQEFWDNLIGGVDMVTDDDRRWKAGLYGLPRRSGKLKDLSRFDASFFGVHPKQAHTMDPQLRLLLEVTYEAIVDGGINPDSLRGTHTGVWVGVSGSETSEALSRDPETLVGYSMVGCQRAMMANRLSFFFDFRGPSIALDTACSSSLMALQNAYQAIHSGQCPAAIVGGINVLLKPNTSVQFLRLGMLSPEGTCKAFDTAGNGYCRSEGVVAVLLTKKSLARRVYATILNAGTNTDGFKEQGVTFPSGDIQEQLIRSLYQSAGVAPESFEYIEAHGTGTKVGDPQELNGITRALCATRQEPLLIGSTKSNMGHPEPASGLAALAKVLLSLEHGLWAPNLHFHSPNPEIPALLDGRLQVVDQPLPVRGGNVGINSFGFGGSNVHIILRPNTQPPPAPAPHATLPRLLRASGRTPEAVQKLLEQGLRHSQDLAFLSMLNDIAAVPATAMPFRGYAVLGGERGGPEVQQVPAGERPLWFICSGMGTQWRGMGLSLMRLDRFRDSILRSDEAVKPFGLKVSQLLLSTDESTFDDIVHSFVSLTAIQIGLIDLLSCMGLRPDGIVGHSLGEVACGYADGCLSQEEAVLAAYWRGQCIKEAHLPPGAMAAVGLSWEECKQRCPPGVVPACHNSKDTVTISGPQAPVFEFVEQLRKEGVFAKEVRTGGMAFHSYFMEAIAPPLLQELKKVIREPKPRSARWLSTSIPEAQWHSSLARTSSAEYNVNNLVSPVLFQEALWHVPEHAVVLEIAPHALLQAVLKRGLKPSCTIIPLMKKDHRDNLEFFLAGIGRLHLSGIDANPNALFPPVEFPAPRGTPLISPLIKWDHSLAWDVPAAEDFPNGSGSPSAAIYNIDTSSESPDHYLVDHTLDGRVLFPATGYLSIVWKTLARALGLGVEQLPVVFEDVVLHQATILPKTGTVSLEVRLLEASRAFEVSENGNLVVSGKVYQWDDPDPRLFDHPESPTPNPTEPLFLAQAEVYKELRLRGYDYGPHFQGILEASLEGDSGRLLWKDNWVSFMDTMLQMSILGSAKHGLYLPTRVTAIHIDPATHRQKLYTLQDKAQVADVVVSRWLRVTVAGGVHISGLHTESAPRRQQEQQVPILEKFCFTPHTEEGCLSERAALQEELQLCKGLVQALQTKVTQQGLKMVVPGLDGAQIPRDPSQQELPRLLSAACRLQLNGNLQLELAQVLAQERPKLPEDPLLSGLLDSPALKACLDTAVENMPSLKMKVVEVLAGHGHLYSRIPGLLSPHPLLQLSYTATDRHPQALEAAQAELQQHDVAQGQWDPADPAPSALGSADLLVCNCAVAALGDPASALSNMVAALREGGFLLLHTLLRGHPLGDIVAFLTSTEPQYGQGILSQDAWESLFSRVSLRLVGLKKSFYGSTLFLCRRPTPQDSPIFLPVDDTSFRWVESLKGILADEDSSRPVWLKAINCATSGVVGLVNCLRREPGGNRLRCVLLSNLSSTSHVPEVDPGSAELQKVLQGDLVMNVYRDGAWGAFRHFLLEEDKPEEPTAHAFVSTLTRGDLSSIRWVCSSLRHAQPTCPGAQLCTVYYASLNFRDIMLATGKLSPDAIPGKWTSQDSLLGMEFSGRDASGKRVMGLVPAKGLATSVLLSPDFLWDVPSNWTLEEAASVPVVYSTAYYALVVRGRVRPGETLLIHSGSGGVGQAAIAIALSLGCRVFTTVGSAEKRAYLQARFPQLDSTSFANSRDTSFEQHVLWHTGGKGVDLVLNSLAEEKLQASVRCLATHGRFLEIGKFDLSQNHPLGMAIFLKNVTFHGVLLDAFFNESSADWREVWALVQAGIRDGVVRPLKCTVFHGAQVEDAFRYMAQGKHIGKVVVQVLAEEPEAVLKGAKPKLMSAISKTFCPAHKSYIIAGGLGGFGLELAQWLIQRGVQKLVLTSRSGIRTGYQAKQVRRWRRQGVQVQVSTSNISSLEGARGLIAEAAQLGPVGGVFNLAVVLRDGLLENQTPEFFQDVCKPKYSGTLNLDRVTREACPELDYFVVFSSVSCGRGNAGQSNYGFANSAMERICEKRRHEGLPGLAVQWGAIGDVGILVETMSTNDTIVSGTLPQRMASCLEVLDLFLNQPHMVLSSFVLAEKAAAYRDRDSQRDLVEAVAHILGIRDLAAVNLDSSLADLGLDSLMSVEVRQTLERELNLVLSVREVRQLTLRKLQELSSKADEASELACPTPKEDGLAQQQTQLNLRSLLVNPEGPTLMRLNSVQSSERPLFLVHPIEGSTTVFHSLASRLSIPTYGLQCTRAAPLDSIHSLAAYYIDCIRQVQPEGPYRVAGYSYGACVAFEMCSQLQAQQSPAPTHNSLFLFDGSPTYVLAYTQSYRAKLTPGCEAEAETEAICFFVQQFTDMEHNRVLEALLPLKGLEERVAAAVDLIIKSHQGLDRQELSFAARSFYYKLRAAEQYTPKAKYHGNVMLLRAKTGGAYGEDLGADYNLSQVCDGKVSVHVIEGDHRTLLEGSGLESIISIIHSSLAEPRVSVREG
Sequence of Beta-galactosidase (Q8VNN2 whole entry): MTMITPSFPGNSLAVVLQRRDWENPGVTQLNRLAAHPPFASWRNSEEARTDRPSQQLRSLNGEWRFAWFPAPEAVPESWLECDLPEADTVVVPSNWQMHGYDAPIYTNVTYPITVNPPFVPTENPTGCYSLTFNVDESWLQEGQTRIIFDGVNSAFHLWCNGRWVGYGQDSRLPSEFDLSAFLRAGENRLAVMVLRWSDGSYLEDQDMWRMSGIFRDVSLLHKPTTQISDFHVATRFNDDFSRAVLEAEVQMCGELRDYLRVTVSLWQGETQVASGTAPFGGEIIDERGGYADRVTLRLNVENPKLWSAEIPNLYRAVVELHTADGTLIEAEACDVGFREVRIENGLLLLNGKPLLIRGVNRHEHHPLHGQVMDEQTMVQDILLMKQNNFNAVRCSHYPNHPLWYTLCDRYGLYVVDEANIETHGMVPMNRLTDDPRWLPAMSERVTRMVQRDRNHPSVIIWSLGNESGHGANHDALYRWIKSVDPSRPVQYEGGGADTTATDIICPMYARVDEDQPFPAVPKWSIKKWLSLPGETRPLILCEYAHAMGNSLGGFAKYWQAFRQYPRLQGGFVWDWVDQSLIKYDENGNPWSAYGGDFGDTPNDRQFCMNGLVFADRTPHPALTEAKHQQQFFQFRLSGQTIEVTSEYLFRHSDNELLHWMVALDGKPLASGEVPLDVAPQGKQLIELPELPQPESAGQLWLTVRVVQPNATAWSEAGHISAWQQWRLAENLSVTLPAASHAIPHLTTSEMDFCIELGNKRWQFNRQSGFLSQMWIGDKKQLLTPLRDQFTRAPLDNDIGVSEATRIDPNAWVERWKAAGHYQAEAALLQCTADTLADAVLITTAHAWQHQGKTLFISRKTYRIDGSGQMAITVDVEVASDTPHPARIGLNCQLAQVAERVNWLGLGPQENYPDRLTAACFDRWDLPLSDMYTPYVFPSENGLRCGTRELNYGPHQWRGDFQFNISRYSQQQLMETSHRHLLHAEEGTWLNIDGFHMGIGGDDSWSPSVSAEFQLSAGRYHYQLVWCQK
Sequence of Induced myeloid leukemia cell differentiation protein Mcl-1 (Q07820 whole entry): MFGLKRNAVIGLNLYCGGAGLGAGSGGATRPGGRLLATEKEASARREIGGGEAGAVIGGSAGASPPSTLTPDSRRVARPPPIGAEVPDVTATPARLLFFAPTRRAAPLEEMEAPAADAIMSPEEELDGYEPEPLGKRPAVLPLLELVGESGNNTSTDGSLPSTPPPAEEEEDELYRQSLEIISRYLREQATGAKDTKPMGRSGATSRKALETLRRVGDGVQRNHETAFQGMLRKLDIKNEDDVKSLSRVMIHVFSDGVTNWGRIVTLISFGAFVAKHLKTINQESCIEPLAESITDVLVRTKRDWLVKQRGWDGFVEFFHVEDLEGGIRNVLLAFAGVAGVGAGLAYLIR

SMILES: Cc1ccc2nc3c(nc2c1C)C(O)=C3O
- IC50 (Aminopeptidase N): 48.5 µM (active)

SMILES: Cc1cccc(NC(=S)N/N=C2/CCCCc3ccccc32)c1
- EC50 (Beta-galactosidase): > 40 µM (inactive)
- IC50 [1]: > 40 µM (not active)
- EC50 (Protein RecA): > 380 µM (inactive)
- AC50 [2]: 34 µM (active)

SMILES: COc1cc(/C=C/C(=O)O)cc(S(=O)(=O)Nc2ccc3nc(SC)sc3c2)c1OC
- IC50 (Aminopeptidase N): 66.4 µM (active)

SMILES: NNC(=O)c1cccc(COc2ccc3c(c2)CCC3)c1
- AC50 (HEK293): 2.12 µM (active)

SMILES: CCN(C[C@H]1N[C@@](C)(C(=O)OC)[C@H]2C(=O)N(Cc3ccccc3)C(=O)[C@@H]12)S(=O)(=O)c1ccc(C(C)(C)C)cc1
- AC50 [3]: 5.72 µM (active)
- AC50 [4]: 5.16 µM (active)
- AC50 [5]: 6.14 µM (active)
- AC50 [6]: 6.31 µM (active)

SMILES: Cc1ccc(/C=C/C(=O)NCc2ccccn2)o1
- IC50 [7]: 6.32 µM (active)

SMILES: CCn1c(COc2ccc(Cl)cc2)nnc1SCc1nc2ccccc2[nH]1
- AC50 [3]: 6.83 µM (active)
- AC50 [4]: 12 µM (active)
- AC50 [5]: 5.17 µM (active)
- AC50 [6]: 23.5 µM (active)

SMILES: O=C(CN1CC(c2ccccc2)CC1=O)N/N=C/c1cc(Br)ccc1O (stereo unspecified)
- IC50 (Aminopeptidase N): 11.8 µM (active)
- IC50 (Fatty acid synthase [8]): 4.11 µM (active)
- IC50 (Fatty acid synthase [9]): 3.61 µM (active)

SMILES: Cc1cccc(-c2nc3ccccc3c(=O)n2NC(=O)c2cccs2)c1
- IC50 (Aminopeptidase N): 44.1 µM (active)

SMILES: CC1CCN(c2ccc(-c3ccc(NC(=O)C(F)(F)F)cc3)nn2)CC1
- AC50 (HEK293): 2.7 µM (active)
